# Measured values: US12421260B2, “Neurokinin-1 antagonist” (SHANGHAI SHENGDI PHARMACEUTICAL CO., LTD, priority 2019, dated 2025)
# Where two headings read alike, the source gives them in different places.
# How the values were obtained:
# [1] = Water solubility (Test Example 1); assay type: physicochemical; conditions: aqueous buffer, thermodynamic from solid
# Protocol: 1.1. Preparation of Reagents
# The 100 mL strength reagents were prepared as follows:
# pH=3.0: phosphate buffer solution: 100 ml of 20 mmol/L NaH2PO4, 0.1M H3PO4, adjusting pH to 3.0.
# pH=4.0: phosphate buffer solution: 100 ml of 20 mmol/L NaH2PO4, 0.1M H3PO4, adjusting pH to 4.0. […]
# An appropriate amount of test compound was accurately weighed. The solution was added at a small amount each time for several times and stirred until the compound was dissolved, and the content of the compound in the solution was determined.
# [2] = In vivo pharmacokinetic test in rats (Test Example 5); conditions: plasma, rat, intravenous bolus 2 mg/kg
# Protocol: Rats were used as the test animals. The plasma drug concentration at different time points after administration of the compounds of Example 1 and Example 2 by injection was determined using LC/MS/MS method. The in vivo pharmacokinetic of the compounds in rats was studied, and the pharmacokinetic characteristics were evaluated.
# A certain amount of the compounds of Example 1 and Example 2 were weighed and prepared into a pH=4.0 solution by using 20 mmol/L sodium dihydrogen phosphate for later use.
# The drug was administered by intravenous bolus injection with an injection time of about 5 min, administration dose of 2 mg/kg, administration concentration of 0.4 mg/ml and administration volume of 5 ml/kg.
# (§1) Blood was collected from the orbital vein before administration and 5 min, 0.25 h, 0.5 h, 1 h, 2 h, 4 h, 6 h, 8 h, 10 h, 24 h and 48 h after administration. About 0.6 mL was collected for each sample which was subject to anticoagulation using heparin sodium and placed on ice immediately after collection. The blood samples were placed in labeled centrifuge tubes after collection, and plasma was separated by centrifugation (centrifugation conditions: centrifugal force 2200 g, centrifugation at 2-8° C. for 10 min).
# [3] = Metabolism in plasma of rat (Test Example 4); assay type: in vitro ADME; design: unit not given here
# Protocol: (§2) 5 μL of the 16 μM working solution of the compound of Example 5 was added to 75 μL plasma at a final concentration of 1 μM. The samples were incubated in a 37° C. water bath for 0, 15, 30, 60, 90, 120 and 180 min. After completion of the incubation, 240 μL of internal standard containing acetonitrile was added into the samples which was then shaken on a shaker at 800 rpm for 10 min and centrifuged at 3700 rpm at 4° C. for 20 min. The supernatant was analyzed by LC-MS, and the injection volume was 2 μL.
# (§3) The metabolism of the compounds of Example 1, Example 2 and Example 8 in the plasma of mouse, rat and human was determined by referring to the test method in Test Example 2.
# [4] = Chemical stability of the compounds (Test Example 1); assay type: physicochemical; conditions: purity loss after placing for 7 days; 4° C. and room temperature
# Protocol: 2.1 Test of Stability of the Compounds
# About 1 mg of sample was weighed into a vial, then the vial was placed in a vacuum bag and the bag was vacuumized. Then the bag was put into a container containing color-changing silica gel and sealed. Two parallel samples were prepared. Enough samples were prepared according to the sampling time point and placed at 4° C. and room temperature respectively.
# [5] = Metabolism in plasma of mouse (Test Example 4); assay type: in vitro ADME; design: unit not given here
# Protocol: as §2, §3
# [6] = Metabolism in human plasma (Test Example 4); assay type: in vitro ADME; design: plasma concentration of the compounds of the examples: unit not given here
# Protocol: as §2, §3
# [7] = Plasma stability test, conversion in fresh human plasma (Test Example 2); assay type: in vitro ADME; conditions: for Compound of Example 5 concentration in plasma: human plasma, 37° C.
# Protocol: The compound of Example 5 and the compound of formula I.
# Human fresh plasma was donated by volunteers with informed consent.
# 1.3 Preparation of Solution of the Compound
# A certain amount of the compound of Example 5 was weighed and DMSO was added to prepare a 30 mM stock solution. A certain volume of the stock solution was diluted with DMSO to prepare solution I at a concentration of 1600 μM. Then a certain volume of the 1600 μM solution I was diluted with 45% methanol to prepare working solution II at a concentration of 16 μM. The 30 mM stock solution and the 1600 μM solution […] for the compound of formula I were also prepared by the above method.
# as §2
# 1.5 Preparation of Standard Curve
# The previously 1600 μM solution I was diluted with acetonitrile to prepare the standard curve working solution with concentrations of 160, 400, 1600, 4000, 8000, 16000 and 32000 ng/mL. The concentration of QC working solution was 480, 1920 and 25600 ng/mL. 5 μL of the standard curve working solution and QC working solution were added to 75 μL plasma to obtain the standard curve samples with final concentrations of 10, 25, 100, 250, 500, 1000 and 2000 ng/mL and QC samples with final concentrations of 30, 120 and 1600 ng/mL. 240 μL of acetocyano containing the internal standard was then added into the samples quickly, which was then shaken in a shaker at 800 rpm for 10 min and centrifuged at 3700 rpm at 4° C. for 20 min. The supernatant was collected and analyzed by LC-MS, and the injection volume was 2 μL.
# The standard curve of the compound of formula I and QC sample were prepared by the above method.
# [8] = Pharmacokinetic test in cynomolgus monkeys, Example 5 (Test Example 6); assay type: in vivo; conditions: for AUC(0-t) / Cmax / Tmax: cynomolgus monkey, iv 2 mg/kg Example 5
# Protocol: Cynomolgus monkeys were used as the test animals. The plasma drug concentration at different time points after iv administration of the compound of Example 5 by injection was determined using LC/MS/MS method. The in vivo pharmacokinetic of the compound of the present invention in cynomolgus monkeys was studied, and the pharmacokinetic characteristics were evaluated.
# A certain amount of the compound of Example 5 was weighed and prepared into a pH=4.0 solution by using 20 mmol/L sodium dihydrogen phosphate for later use.
# The drug was administered by intravenous with injection time of about 30 min, administration dose of 2 mg/kg, administration concentration of 0.4 mg/ml and administration volume of 5 ml/kg.
# as §1, with “the femoral” for “the orbital”, “0.6 ml of” for “0.6 mL”, “each sample,” for “each sample”
# The content of the compound of Example 5 and rolapitant in plasma samples was determined by LC/MS/MS.
# [9] = system: Red blood cells (RBC); assay: Hemolytic effect (Test Example 8); assay type: cell-based, rabbits; conditions: rabbit red blood cell 2% suspension, PBS
# Protocol: Red blood cells (RBC) were collected from the jugular vein or central ear artery of rabbits (10 ml of EDTA whole blood). The blood was put in a conical flask with glass beads and shaken for 10 minutes to remove fibrinogen, resulting in defibrinated blood. About 10 times the amount of sodium chloride solution was added to the defibrinated blood, which was then shaken well and centrifuged at 1500 rpm for 10 minutes. The supernatant was removed and the precipitated red blood cells were washed with sodium chloride injection for 3 times according to the above method, until the supernatant was observed colorless. The obtained red blood cells were prepared into a 2% (v/v) suspension with sodium chloride injection for later use.
# The test samples (the compound of Example 5 and the compound of Example 19) were respectively dissolved in PBS (pH 7.4 or pH 5) and filtered to prepare 0.4 mg/ml, 0.8 mg/ml, 1.2 mg/ml, 1.6 mg/ml and 2 mg/ml solutions for later use.
# A certain amount of test sample solution was added to the above […] for testing in the supernatant.
# The sample should be further observed under a microscope, and if red blood cells can be seen as aggregated, then coagulation has occurred. The hemolytic effect of the compounds of the present disclosure was determined by using this method.
compound,measurement,setting,value
C[C@@H](OC[C@@]1(c2ccccc2)CC[C@]2(CCC(=O)N2)CN1C(=O)OCCCOP(=O)(O)O)c1cc(C(F)(F)F)cc(C(F)(F)F)c1 [Example 2],solubility,[1]; PH = 5,9050 µg/mL
same,AUC(0-t),[2]; read-out: AUC0-t of the compound of the example,41.6 ng·h/mL
same,AUC(0-inf),[2]; read-out: AUC0-∞ of the compound of the example,42.2 ng·h/mL
same,MRT inf,[2]; read-out: MRT 0-∞ of the compound of the example,4.38 min
same,half-life,[2]; read-out: T1/2 of the compound of the example (converted),5.22 min
same,plasma concentration of the compounds of the examples,[3],97.70
same,Chemical stability,[4],Good (purity reduced by <0.5% after placing for 7 days)
same,plasma concentration of the compounds of the examples,[5],91.17
same,conversion into rolapitant (in words),[6],"basically no convertion into rolapitant in human plasma, or only a slight conversion"
same,plasma concentration of the compounds of the examples,[6],99.00
CC(C)[C@H](N)C(=O)OCOC(=O)N1C[C@@]2(CCC(=O)N2)CC[C@@]1(CO[C@H](C)c1cc(C(F)(F)F)cc(C(F)(F)F)c1)c1ccccc1 [Example 5],solubility,"[1]; phosphate buffer, PH = 4",> 10000 µg/mL
same,Compound of Example 5 concentration in plasma,"[7]; 0 min, 1 μM start",1 µM
same,Compound of Example 5 concentration in plasma,[7]; 15 min,0.53 µM
same,Compound of Example 5 concentration in plasma,[7]; 30 min,0.12 µM
same,Compound of Example 5 concentration in plasma,[7]; 60 min,0.01 µM
same,Compound of Example 5 concentration in plasma,[7]; 90 min,0.00 µM
same,Compound of Example 5 concentration in plasma,[7]; 120 min,0.00 µM
same,Compound of Example 5 concentration in plasma,[7]; 180 min,0.00 µM
same,in vivo transformation into rolapitant (in words),"[8]; cynomolgus monkeys, iv 2 mg/kg",most of the compound were rapidly transformed into the active metabolite rolapitant
same,AUC(0-t),"[8]; plasma, analyte Example 5, read-out: AUC0-t",0.77 ± 0.29 ng·h/mL
same,Cmax,"[8]; plasma, analyte Example 5, read-out: Cmax",2.28 ± 0.39 ng/mL
same,Tmax,"[8]; plasma, analyte Example 5, read-out: Tmax",6.6 ± 7.2 min
same,concentration with hemolytic effect,[9],≥ 40000 ng/mL
same,Chemical stability,[4],Good (purity reduced by <0.5% after placing for 7 days)
C[C@@H](OC[C@@]1(c2ccccc2)CC[C@]2(CCC(=O)N2C(=O)CCC(=O)O)CN1)c1cc(C(F)(F)F)cc(C(F)(F)F)c1 [Example 8],solubility,[1]; PH = 5,1370 µg/mL
same,plasma concentration of the compounds of the examples,[3],59.89
same,Chemical stability,[4],Moderate (purity reduced by 0.5%~2.0% after placing for 7 days)
same,plasma concentration of the compounds of the examples,[5],61.67
same,conversion rate into rolapitant,[6],~46%
same,plasma concentration of the compounds of the examples,[6],54.54
C[C@@H](OC[C@@]1(c2ccccc2)CC[C@]2(CCC(=O)N2)CN1C(=O)OCOP(=O)(O)O)c1cc(C(F)(F)F)cc(C(F)(F)F)c1 [Example 19],concentration with no hemolytic effect,[9],up to 2 mg/ml
"(5S,8S)-8-[{(1R)-1-(3,5-bis-(trifluoromethyl)phenyl)-ethoxy}-methyl]-8-phenyl-1,7-diazaspiro[4.5]dec-2-one [Rolapitant, reference compound]",Compound of formula 1 concentration formed from Example 5,"[7]; human plasma incubated with 1 μM Example 5, 0 min",0.00 µM
same,Compound of formula 1 concentration formed from Example 5,"[7]; human plasma incubated with 1 μM Example 5, 15 min",0.78 µM
same,Compound of formula 1 concentration formed from Example 5,"[7]; human plasma incubated with 1 μM Example 5, 30 min",1.18 µM
same,Compound of formula 1 concentration formed from Example 5,"[7]; human plasma incubated with 1 μM Example 5, 60 min",1.22 µM
same,Compound of formula 1 concentration formed from Example 5,"[7]; human plasma incubated with 1 μM Example 5, 90 min",1.31 µM
same,Compound of formula 1 concentration formed from Example 5,"[7]; human plasma incubated with 1 μM Example 5, 120 min",1.28 µM
same,Compound of formula 1 concentration formed from Example 5,"[7]; human plasma incubated with 1 μM Example 5, 180 min",1.02 µM
same,AUC(0-t),[8]; analyte rolapitant,4326.87 ± 1820.65 ng·h/mL
same,Cmax,[8]; analyte rolapitant,315.25 ± 97.08 ng/mL
same,Tmax,[8]; analyte rolapitant,8.4 ± 6 min
